In brackets after ≈: the same amount, converted by molar mass. Where two headings read alike, the source gives them in different places. Starred links: 1 amine or outer side, 2 acyl side, 3 side chain; linkers in the order of their positions; H or OH if unused. Non-standard residues stand in square brackets, D forms with d. Residues, ends and D or L forms follow the SMILES beside them. Groups on a side chain read outwards from the residue. *: point of attachment. X1 = CCCCCCCCCCCCCCCC(=O)N[C@@H](CCC(=O)N[C@@H](CCC(=O)N[C@@H](CCC(=O)NCCCOCCOCCOCCCNC(=O)CCC(=O)NCCCOCCOCCOCCCNC(=O)CCC(=O)NCCCOCCOCCOCCCN*)C(=O)O)C(=O)O)C(=O)O; Suc = O=C(CCC(=O)[*:2])[*:1]; Aib = CC(C)(N)C(=O)O
How the values were obtained:
in vivo = experiment: in vivo; design: species or system Sprague Dawley rats; settings: rat
Protocol: Prior to the testing of a peptide batch, its purity (HPLC-UV) was determined. Dose was corrected for presence of salts, solvent and purity. Bioanalytical screening method for quantification of peptides in rat: Sprague Dawley rats were dosed with study peptide at a dose of 1 mg/kg intravenously (i.v.) or 3 mg/kg subcutaneously (s.c.) as a solution in PBS (0.2 mg/ml and 0.6 mg/ml respectively). Blood samples were collected after: 0.083, 0.25, 0.5, 1, 2, 4, 8, 24, 48 and 72 h (i.v. route) and 0.25, 0.5, 1, 2, 4, 6, 8, 10, 24, 48 and 72 h (s.c route) post application. Plasma samples were analyzed after protein precipitation via liquid chromatography mass spectrometry (LC/MS). PK parameters and half-life were calculated using Phoenix 64 (WinNonlin 6.4)-Pharsight (Certara™) (non-compartment model). Values below the limit of quantification (BLQ) were replaced by zero for subsequent calculations and PK analysis. T½: in-vivo half-life, time required for test compound plasma concentration to be divided by two during the PK experiment. C0: Extrapolated test compound plasma concentration at t=0 time point (i.v. route). Cmax: maximal test compound plasma concentration at the indicated time point (s.c. route). Tmax: Time point where Cmax was attained. F %: s.c. vs i.v. bioavailability, dose-corrected area under curve (AUC) s.c. route divided by AUC i.v.

Stability in rat plasma = format: in vitro ADME; settings: T = 0, 37° C., 5 μM
Protocol: (§1) Prior to the testing of stability in plasma (or blood) of a peptide batch, its purity (HPLC-UV) was determined.
(§2) Rat and Human plasma: anti-coagulant sodium or lithium heparin.
(§3) 100 μM solution of study compound in 50 mM phosphate buffer pH 7.4.
(§4) 950 μL plasma (or blood) was pre-incubated for 5 min at 37° C. 50 μL of compound stock solution was added. Final compound concentration=5 μM. Vortex and transfer 150 μL plasma (or blood) into an Eppendorf for each time point. The time points […] were carried out in duplicate for each species.
(§5) After incubation, 150 μL plasma (or blood) was extracted with 600 μL Acetonitrile containing 1% TFA. Said mixture was then vortexed and centrifuged 10 min at 14600 rpm. 200 μL supernatant was dried under N2. Sample was then reconstituted in 200 μL of H2O/CH3CN 98/2+0.1% FA+50 ng/ml Labetalol and analyzed using the analytical system used in solubility and stability studies.
(§6) For determination of the amount of the remaining peptide, the peak areas of the target compound at t0 and each time point […] were compared, resulting in “% remaining peptide”, following the equation: % remaining peptide=[(peak area peptide time)×100]/peak area peptide t0. The stability was expressed as “% remaining peptide”.

[1] = Stability in human plasma; format: in vitro ADME; settings: T = 0, 37° C., 5 μM
Protocol: as §1, §2, §3, §4, §5, §6

RXFP1 = target: T1, RXFP1 (Homo sapiens, UniProt Q9HBX9); experiment: OVCAR5 cAMP assay (HTRF); format: cell-based
T1 construct: OVCAR5 cells expressing endogenous RXFP1; endogenous in cells; host or cells: OVCAR5
T1 sequence (Q9HBX9 1-757): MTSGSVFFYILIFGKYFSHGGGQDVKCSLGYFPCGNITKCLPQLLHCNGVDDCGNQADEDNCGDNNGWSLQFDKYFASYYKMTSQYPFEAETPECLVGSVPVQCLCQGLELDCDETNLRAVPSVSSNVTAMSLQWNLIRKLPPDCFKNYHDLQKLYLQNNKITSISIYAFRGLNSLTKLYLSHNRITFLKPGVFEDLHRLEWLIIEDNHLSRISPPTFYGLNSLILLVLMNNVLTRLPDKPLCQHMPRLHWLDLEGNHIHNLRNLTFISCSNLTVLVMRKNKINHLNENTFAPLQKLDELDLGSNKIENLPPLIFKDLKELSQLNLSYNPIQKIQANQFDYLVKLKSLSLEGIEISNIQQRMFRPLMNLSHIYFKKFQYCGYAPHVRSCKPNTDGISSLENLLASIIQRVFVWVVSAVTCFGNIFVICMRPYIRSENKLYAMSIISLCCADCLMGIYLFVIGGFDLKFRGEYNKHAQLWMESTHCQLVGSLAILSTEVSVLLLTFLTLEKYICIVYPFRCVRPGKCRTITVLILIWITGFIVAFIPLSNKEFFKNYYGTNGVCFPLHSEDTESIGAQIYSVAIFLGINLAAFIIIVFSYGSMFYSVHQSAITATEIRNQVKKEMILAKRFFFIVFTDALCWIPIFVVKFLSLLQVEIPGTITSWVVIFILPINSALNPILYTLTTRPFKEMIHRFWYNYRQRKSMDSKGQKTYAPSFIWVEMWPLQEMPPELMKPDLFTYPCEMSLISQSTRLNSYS
Procedure, shortened: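 Peptide agonism measured as intracellular cAMP (HTRF) after 30 min at 37° C in serum-free medium, following 40 min 1 mM IBMX preincubation of OVCAR5 cells. Nonlinear regression gave EC50; Emax % = 100 × compound maximal cAMP / H2-relaxin maximal cAMP.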

[2] = Solubility testing in buffer; format: physicochemical; settings: target solubility 10.0 mg/ml
Protocol: Prior to the testing of solubility of a peptide batch, its purity (HPLC-UV) was determined.
Acetate Buffer 50 mM pH4.5: 0.75 g C2H3C02Na,3H2O (Sigma S7545)+0.35 ml CH3CO2H 100% solution dissolved in Millipore water, adjusted to pH with diluted (1:1) CH3CO2H and diluted to 250 ml with Millipore water.
In a 4 ml Ependorph vial, an accurately weighed sample of compound was diluted in study media to obtain target concentration of 2, 6 or 10 mg/ml of pure compound. The sample vials were shacked (rock 'roll shaker) for ˜19 h. 300 μL aliquots were filtered through a Millipore “Solvinert” plate (0.45 μm-PTFE hydrophilic).
pH was measured with a micro electrode
Waters Acquity UPLC System with DAD detector
Column: Waters Peptide Column CSH C18 (130 Å; 1.7 μm; 50*2.1 mm)
Column temperature: 60° C.
Full loop (about 5 μL)—overfill factor 5
Weak et Strong wash: H2O/ACN (75/25; V/V); Seal wash: H2O/IsOH (95/5; V/V). Mobile phase:
Solvent A: 0.05% TFA in H2O; Solvent B: 0.035% TFA in CH3CN
Gradient: from 0 to 12 min B=2% to 60%, from 12 to 14 min B=60% to 100%. Column washing 100% B 1 min, column equilibration 2% B 2.5 min.
UV detector: wavelength: 220 nm.

H2-Relaxin: 6-kDa peptidic hormone of 53 amino acids; A chain (SEQ ID NO: 100) and B chain (SEQ ID NO: 101) cross-linked by disulfide bonds
C0 (in vivo; iv, 1 mg/kg): 870 nM
T½ (h), in-vivo half-life (in vivo; iv, 1 mg/kg): 0.46 h

H-VIKLSGRELVRAQIAISGMSTWSKRSL-NH2 [B7-33 C11.23S, reference compound]
Rat plasma stability % remaining (Stability in rat plasma): 100%
Human Plasma stability % remaining [1]: 100%

CCCCCCCCCCCCCCCC(=O)N[C@@H](CCC(=O)N[C@@H](CCC(=O)N[C@@H](CCC(=O)NCCCOCCOCCOCCCNC(=O)CCC(=O)NCCCOCCOCCOCCCNC(=O)CCC(=O)NCCCOCCOCCOCCCNC(=O)CCC(=O)NCCCC[C@H](NC(=O)CNC(=O)[C@H](CCC(=O)O)NC(=O)C(C)(C)NC(=O)C(C)(C)NC(=O)[C@@H](NC(=O)[C@H](CCCCNC(C)=O)NC(=O)[C@H](C)NC(=O)[C@H](CCCNC(=N)N)NC(=O)[C@@H](NC(=O)[C@H](CCCNC(=N)N)NC(=O)[C@H](CCC(=O)O)NC(=O)[C@H](CCCNC(=N)N)NC(=O)CNC(=O)[C@H](CCC(=O)O)NC(=O)[C@H](CC(C)C)NC(C)=O)C(C)C)[C@@H](C)CC)C(=O)N[C@@H](CO)C(=O)N[C@H](C(=O)N[C@@H](Cc1c[nH]c2ccccc12)C(=O)N[C@@H](CO)C(=O)NC(C)(C)C(=O)N[C@@H](CCCNC(=N)N)C(=O)N[C@@H](CCCNC(=N)N)C(=O)N[C@@H](CCCCNC(C)=O)C(N)=O)[C@@H](C)O)C(=O)O)C(=O)O)C(=O)O [compound 55] (Ac-LEGRERVRAK(Ac)I[Aib][Aib]EGK([Suc-X1])STWS[Aib]RRK(Ac)-NH2)
C0 (in vivo; Sprague Dawley, iv, 1 mg/kg): 4910 nM
half-life (in vivo; Sprague Dawley, iv, 1 mg/kg): 4.89 h
bioavailability (in vivo; Sprague Dawley, sc): 65%
Cmax (in vivo; Sprague Dawley, sc, 3 mg/kg): 2070 nM
Tmax (in vivo; Sprague Dawley, sc, 3 mg/kg): 6 h
EC50 (RXFP1; OVCAR 5 cells expressing endogenous RXFP1, cAMP readout): 0.18 nM
Emax (RXFP1; OVCAR 5 cells, maximal cAMP relative to H2-relaxin): 93%
solubility ([2]; acetate buffer 50 mM pH 4.5, read-out: Solubility Acetate buffer pH 4.5): 9260 µg/mL (≈ 2080 µM)
solubility ([2]; phosphate buffer 50 mM pH 7.4, read-out: Solubility phosphate buffer pH 7.4): 8840 µg/mL (≈ 1980 µM)
